According to patent publication US20100152434A1, “Protein Kinase-binding Nucleosides and Associated Methods” (priority 2007, published 2010):
Like-named read-outs stand apart in the source and are kept apart here.

Columns and labels:
NCI-H460 = assay: cells; conditions: Homo sapiens, NCI-H460, 48 h
RPMI-8226 [1] = tested on: RPMI-8226
SK-OV-3 = assay: cells; conditions: Homo sapiens, SK-OV-3, 48 h
NCI/ADR-RES = assay: cells; conditions: Homo sapiens, 48 h
M14 = assay: cells; conditions: Homo sapiens, M14, 48 h
HCC-2998 = conditions: HCC-2998
RPMI-8226 [2] = assay: cells; conditions: Homo sapiens, RPMI-8226, 48 h
SN12C = assay: cells; conditions: Homo sapiens, 48 h
A549/ATCC [3] = tested on: A549/ATCC
SNB-19 [4] = assay: cells; conditions: Homo sapiens, SNB-19, 48 h
A549/ATCC [5] = assay: cells; conditions: Homo sapiens, A549, 48 h
HOP-92 = assay: cells; conditions: Homo sapiens, HOP-92, 48 h
SNB-75 = assay: cells; conditions: Homo sapiens, SNB-75, 48 h
NCI-H322M = conditions: NCI-H322M
SNB-19 [6] = tested on: SNB-19
RXF 393 = conditions: RXF 393
[7] = Log10 Concentration −4.0, Molar
[8] = Log10 Concentration −5.0, Molar
[9] = Log10 Concentration −6.0, Molar
[10] = Log10 Concentration −7.0, Molar
[11] = Log10 Concentration −8.0, Molar

CCOC(=O)C[C@@H]1C(O[Si](C)(C)C(C)(C)C)[C@H](n2cnc3c(NC(=O)Nc4ccccc4)ncnc32)O[C@@H]1CNC(=O)NC (some centres unmarked) [Compound 10]
TGI (T-47D; 48 h): >1.00E−4 Molar | Percent Growth (T-47D; [7]): 13% | Percent Growth (T-47D; [8]): 16% | Percent Growth (T-47D; [9]): 73% | Percent Growth (T-47D; [10]): 89% | Percent Growth (T-47D; [11]): 91% | GI50 (NCI-H460): 5.54 µM | CC50 (NCI-H460; read-out: LC50): > 100 µM | TGI (SF-268; 48 h): 2.70E−5 Molar | Percent Growth (SF-268; [7]): −53% | Percent Growth (SF-268; [8]): 40% | Percent Growth (SF-268; [9]): 93% | Percent Growth (SF-268; [10]): 103% | Percent Growth (SF-268; [11]): 102% | TGI (SF-539; 48 h): >1.00E−4 Molar | Percent Growth (SF-539; [7]): 17% | Percent Growth (SF-539; [8]): 29% | Percent Growth (SF-539; [9]): 103% | Percent Growth (SF-539; [10]): 91% | Percent Growth (SF-539; [11]): 97% | TGI (MALME-3M; 48 h): >1.00E−4 Molar | Percent Growth (MALME-3M; [7]): 17% | Percent Growth (MALME-3M; [8]): 50% | Percent Growth (MALME-3M; [9]): 92% | Percent Growth (MALME-3M; [10]): 95% | Percent Growth (MALME-3M; [11]): 104% | TGI (RPMI-8226 [1]; 48 h): 4.57E−6 Molar | Percent Growth (RPMI-8226 [1]; [7]): −57% | Percent Growth (RPMI-8226 [1]; [8]): −27% | Percent Growth (RPMI-8226 [1]; [9]): 53% | Percent Growth (RPMI-8226 [1]; [10]): 75% | Percent Growth (RPMI-8226 [1]; [11]): 77% | GI50 (SK-OV-3): 21 µM | CC50 (SK-OV-3; read-out: LC50): > 100 µM | GI50 (NCI/ADR-RES): > 100 µM | CC50 (NCI/ADR-RES; read-out: LC50): > 100 µM | GI50 (M14): 2.51 µM | CC50 (M14; read-out: LC50): 78.6 µM | TGI (HCC-2998; 48 h): >1.00E−4 Molar | Percent Growth (HCC-2998; [7]): 62% | Percent Growth (HCC-2998; [8]): 69% | Percent Growth (HCC-2998; [9]): 93% | Percent Growth (HCC-2998; [10]): 96% | Percent Growth (HCC-2998; [11]): 101% | TGI (NCI-H522; 48 h): 8.57E−5 Molar | Percent Growth (NCI-H522; [7]): −2% | Percent Growth (NCI-H522; [8]): 32% | Percent Growth (NCI-H522; [9]): 83% | Percent Growth (NCI-H522; [10]): 85% | Percent Growth (NCI-H522; [11]): 89% | GI50 (RPMI-8226 [2]): 1.09 µM | CC50 (RPMI-8226 [2]; read-out: LC50): 59 µM | GI50 (SN12C): 9.1 µM | CC50 (SN12C; read-out: LC50): > 100 µM | TGI (CAKI-1; 48 h): >1.00E−4 Molar | Percent Growth (CAKI-1; [7]): 7% | Percent Growth (CAKI-1; [8]): 88% | Percent Growth (CAKI-1; [9]): 99% | Percent Growth (CAKI-1; [10]): 95% | Percent Growth (CAKI-1; [11]): 88% | TGI (HT29; 48 h): >1.00E−4 Molar | Percent Growth (HT29; [7]): 3% | Percent Growth (HT29; [8]): 17% | Percent Growth (HT29; [9]): 104% | Percent Growth (HT29; [10]): 105% | Percent Growth (HT29; [11]): 104% | TGI (A549/ATCC [3]; 48 h): 1.92E−5 Molar | Percent Growth (A549/ATCC [3]; [7]): −58% | Percent Growth (A549/ATCC [3]; [8]): 23% | Percent Growth (A549/ATCC [3]; [9]): 94% | Percent Growth (A549/ATCC [3]; [10]): 103% | Percent Growth (A549/ATCC [3]; [11]): 102% | TGI (MCF7; 48 h): 4.51E−5 Molar | Percent Growth (MCF7; [7]): −8% | Percent Growth (MCF7; [8]): 16% | Percent Growth (MCF7; [9]): 89% | Percent Growth (MCF7; [10]): 91% | Percent Growth (MCF7; [11]): 96% | TGI (UACC-62; 48 h): >1.00E−4 Molar | Percent Growth (UACC-62; [7]): 60% | Percent Growth (UACC-62; [8]): 82% | Percent Growth (UACC-62; [9]): 97% | Percent Growth (UACC-62; [10]): 102% | Percent Growth (UACC-62; [11]): 100% | GI50 (SNB-19 [4]): 29 µM | CC50 (SNB-19 [4]; read-out: LC50): > 100 µM | GI50 (A549/ATCC [5]): 4.18 µM | CC50 (A549/ATCC [5]; read-out: LC50): 79.1 µM | GI50 (HOP-92): < 0.01 µM | CC50 (HOP-92; read-out: LC50): 41.2 µM | GI50 (SNB-75): 4.56 µM | CC50 (SNB-75; read-out: LC50): > 100 µM | TGI (NCI-H322M; 48 h): >1.00E−4 Molar | Percent Growth (NCI-H322M; [7]): 72% | Percent Growth (NCI-H322M; [8]): 89% | Percent Growth (NCI-H322M; [9]): 95% | Percent Growth (NCI-H322M; [10]): 90% | Percent Growth (NCI-H322M; [11]): 105% | TGI (SNB-19 [6]; 48 h): >1.00E−4 Molar | Percent Growth (SNB-19 [6]; [7]): 12% | Percent Growth (SNB-19 [6]; [8]): 82% | Percent Growth (SNB-19 [6]; [9]): 87% | Percent Growth (SNB-19 [6]; [10]): 95% | Percent Growth (SNB-19 [6]; [11]): 92% | TGI (RXF 393; 48 h): 4.63E−6 Molar | Percent Growth (RXF 393; [7]): −59% | Percent Growth (RXF 393; [8]): −46% | Percent Growth (RXF 393; [9]): 92% | Percent Growth (RXF 393; [10]): 97% | Percent Growth (RXF 393; [11]): 99%
